Experimental data: patent US8017828B2, “Utilization of rare sugars in plant or microorganism” (Shikoku Research Institute Incorporated, priority 2004, dated 2011)

Key:
[1] = test system: strawberry plant (variety: “Sachinoka”); experiment: Spraying of sugar solution during soilless culture of strawberry; assay type: in vivo; conditions: 0.2% (w/v) sprayed weekly
Protocol: In the process of cultivation of strawberry, an effect of spraying D-psicose was examined.
A strawberry plant (variety: “Sachinoka”) was used in an experiment. Strawberry seedlings were transplanted for permanent planting to a mixed culture medium of rockwool and peat moss, and then, by using Otsuka A prescription hydroponic nutrient solution, soilless culture was carried out in a glass house. During the cultivation, on a weekly basis, water, a 0.2% (w/v) D-glucose solution or a 0.2% (w/v) D-psicose solution was sprayed onto the whole plant. As for the number of strawberry plants, 17, 19 and 18 plants were used for the groups, respectively, and permanent planting was carried out on Sep. 24, 2004, and spraying was started from Oct. 22, 2004. A survey was carried out with regard to the growth conditions, the yield of fruits, the quality of fruits and the like by Mar. 7, 2005.

Fusarium oxysporum = experiment: Table 12: plants with or without Fusarium oxysporum, seed and medium treated with D-psicose; assay type: in vivo
[2] = test system: Fusarium oxysporum IFO 31213 strain; experiment: Infection of treated tomato seeds on agar with Fusarium oxysporum; assay type: in vivo, tomato plant (variety: “House Momotaro”)
Protocol: (§1) Therefore, by using a tomato plant and a strain of Fusarium oxysporum, which is a typical pathogenic bacterium of tomato, an effect of D-psicose during infection was examined.
(§2) To be more specific, seeds of a tomato plant (variety: “House Momotaro”) were subjected to an immersion treatment by immersing them in a D-psicose solution at a concentration of from 0.01% (w/v) to 0.1% (w/v) for 15 minutes while stirring slowly, followed by air-drying on sterile gauze, and then used as treated seeds. At the center of a plastic dish with a diameter of 9 cm filled with 25 ml of 1% (w/v) agar, a mycelial disc (diameter: 1 cm) obtained by pushing out Fusarium oxysporum (IFO 9967 strain and IFO 31213 strain) cultured for 1 week on a potato dextrose agar medium using a cork borer along with the agar medium was placed, and 10 seeds of the above treated seeds were placed equally spaced around the disc. At this time, test plots in which D-psicose was added to the agar medium at a concentration of from 0.01% (w/v) to 0.1% (w/v) were prepared. Then, the dishes were placed at 23° C. under the dark condition for 7 days to 10 days, and observation was carried out with regard to the elongation of shoot, the elongation of root, the shoot development rate, the infection state in root and the like.

[3] = test system: Fusarium oxysporum IFO 9967 strain; experiment: as above; assay type: in vivo, tomato plant (variety: “House Momotaro”)
Protocol: as §1, §2

[4] = test system: cherry tomato plant “mini carol”; experiment: Hydroponic growth of cherry tomato with D-psicose 0.001-0.03%; assay type: in vivo; conditions: for number of flower clusters compared with the control plot: control plot 2.0
Protocol: On Jun. 10, 2003, a cherry tomato plant “mini carol” was transplanted for permanent planting to a hydroponic apparatus, and from 7 days after the permanent planting, 4 treated plots (0%, 0.001%, 0.01% and 0.03%) were prepared by adding D-psicose to a nutrient culture solution. A survey was carried out with regard to the growth at […] after the treatment (July 22). […] The fresh weight was larger in the plot of 0.001%, and was smaller in the plot of 0.03% compared with the control plot. When the fresh weight was seen according to the parts, roots and leaves were larger in the plot of 0.001%.

[5] = Fusarium oxysporum added, D-psicose seed 0.01%, medium 0.01%
[6] = Fusarium oxysporum added, D-psicose seed 0.01%, medium non
[7] = Fusarium oxysporum added, D-psicose seed 0.10%, medium 0.10%
[8] = Fusarium oxysporum added, D-psicose seed 0.10%, medium non
[9] = Fusarium oxysporum without addition, D-psicose seed 0.10%, medium non
[10] = D-psicose seed 0.01%, medium 0.01%
[11] = D-psicose seed 0.01%, medium non
[12] = D-psicose seed 0.05%, medium 0.05%
[13] = D-psicose seed 0.05%, medium non
[14] = D-psicose seed 0.10%, medium 0.10%
[15] = D-psicose seed 0.10%, medium non
[16] = seeds treated, and seeds treated plus agar medium

## O=C(CO)[C@H](O)[C@H](O)[C@H](O)CO [D-psicose]
[1]
  acidity in the fruit: improvement
  content of vitamin C in the fruit: improvement
  flower-bud formation: promotion
  growth and total yield: no significant difference
  harvesting time: acceleration
Fusarium oxysporum; [5]
  Aerial part weight: 3.1 g
  Leaf browning ratio: 5%
  Plant length: 17.6 cm
  Survival rate: 50%
  Vascular bundle browning ratio: 45%
Fusarium oxysporum; [6]
  Aerial part weight: 1.9 g
  Leaf browning ratio: 100%
  Plant length: 14.5 cm
  Survival rate: 28%
  Vascular bundle browning ratio: 39%
Fusarium oxysporum; [7]
  Aerial part weight: 3.3 g
  Leaf browning ratio: 13%
  Plant length: 13.8 cm
  Survival rate: 25%
  Vascular bundle browning ratio: 38%
Fusarium oxysporum; [8]
  Aerial part weight: 2.2 g
  Leaf browning ratio: 100%
  Plant length: 13.9 cm
  Survival rate: 16%
  Vascular bundle browning ratio: 60%
Fusarium oxysporum; [9]
  Aerial part weight: 2.2 g
  Leaf browning ratio: 0%
  Plant length: 17.8 cm
  Survival rate: 100%
  Vascular bundle browning ratio: 0%
[2]; D-psicose added to the agar medium
  mycelial elongation of Fusarium oxysporum: inhibited
[2]; [10]
  Root length: 4.7 cm
  Shoot length: 4.5 cm
[2]; [11]
  Root length: 3.9 cm
  Shoot length: 4.7 cm
[2]; [12]
  Root length: 3.5 cm
  Shoot length: 4.5 cm
[2]; [13]
  Root length: 3.8 cm
  Shoot length: 4.2 cm
[2]; [14]
  Root length: 2.1 cm
  Shoot length: 2.9 cm
[2]; [15]
  Root length: 3.2 cm
  Shoot length: 3.0 cm
[2]; [16]
  browning caused by infection of roots with Fusarium oxysporum: reduction
  shoot development rate: improvement
[3]; [10]
  Root length: 4.5 cm
  Shoot length: 5.2 cm
[3]; [11]
  Root length: 4.1 cm
  Shoot length: 5.1 cm
[3]; [12]
  Root length: 3.7 cm
  Shoot length: 5.7 cm
[3]; [13]
  Root length: 3.3 cm
  Shoot length: 3.4 cm
[3]; [14]
  Root length: 2.0 cm
  Shoot length: 3.8 cm
[3]; [15]
  Root length: 3.7 cm
  Shoot length: 4.3 cm
[3]; [16]
  browning caused by infection of roots with Fusarium oxysporum: reduction
  shoot development rate: improvement
[4]; 0.001%
  fresh weight compared with the control plot: larger
  maximum root length compared with the control plot: slightly longer
  number of leaves compared with the control plot: slightly larger
  number of flower clusters compared with the control plot: slightly larger
[4]; 0.001% in nutrient culture solution
  stem length compared with the control plot: slightly longer
[4]; 0.01%
  maximum root length compared with the control plot: slightly shorter
  stem diameter compared with the control plot: slightly larger
  stem length compared with the control plot: slightly longer
[4]; 0.03%
  fresh weight compared with the control plot: smaller
  maximum root length compared with the control plot: slightly shorter
  number of leaves compared with the control plot: slightly smaller
  stem diameter compared with the control plot: slightly smaller
  stem length compared with the control plot: slightly shorter
  number of flower clusters compared with the control plot: slightly smaller
